Results reported in patent publication EP0751768B1, “ANTI-VIRAL AND ANTI-CANCER AGENT” (Radopath Pharmaceuticals International Limited, priority 1994, dated 1995).
Values joined by “and” are separate entries in the source; they are usually repeats but may differ in a detail not shown here. Identical values can stand only once. Like-named read-outs stand apart in the source and are kept apart here.

Key:
HIV-I IIIB = experiment: Acute infection assay, HIV core antigen ELISA (HIV-I IIIB); format: cell-based
[1] = tested on: MAC15A (murine adenocarcinoma colon); format: in vivo, NMR1 mice
B16F1-murine melanoma = format: in vivo
HIV-1RF = experiment: microbe, parasite or virus in culture; format: cell-based, human immunodeficiency virus HIV-1RF; details: read-out: IC50
in vitro = details: CC50 (Toxicity)
in vivo [2] = details: rat, iv
[3] = In vitro anti-tumour activity; format: cell-based; details: compound appears to require activation in the liver
[4] = mice, preliminary data
[5] = rats, preliminary data
B16 murine melanoma = experiment: Anti-tumour activity of C17 against B16 melanoma (tumour weight inhibition); format: in vivo, female C57/black mice
HIV-1 infection = experiment: Pilot study of C17 in patients with HIV-1 infection and HIV-related Kaposi's sarcoma; format: in vivo, humans; parameters: CD4 ABS / CD8 ABS: unit not given here
in vivo [6] = details: mouse, iv
[7] = tested on: M5076-reticulum cell sarcoma; experiment: Anti-tumour activity against M5076 solid tumour (tumour weight inhibition); format: in vivo, murine
Protocol: The in vivo anti-tumour responses of the compound according to the invention were assessed against the ascitic tumours, MAC15A murine colon adenocarcinoma and various solid tumour models. The MAC15A ascites tumour cells were transplanted into male NMR1 mice by ip innoculation at a cell density of 1 x 10^5 cells in 200µl buffer (Table I). The solid tumour models included the MAC13 and MAC16 murine colon adenocarcinomas, the B16 F1 murine melanoma and the M5076 reticulum cell sarcoma.
Treatment commenced 3 days after ip transplant or, in the case of solid tumours such as MAC13 and MAC16, treatment commenced when average tumour volumes reached 40mm^3.
The animals were located in both cases into groups of 5 to 8 animals.
The animals were sacrificed after 12 days or when tumours ulcerated, tumour volume exceeded 1000mm^3 or loss of body weight exceeded 50%.
Except where otherwise stated, the compound used was dissolved in DMSO and diluted in sterile distilled water, at appropriate concentrations before administration in a solvent volume of 200µl. Anti-tumour responses were obtained by comparing the median survival times or tumour growth inhibition against solvent controls.
% Tumour Weight Inhibition:-

[8] = read-out: CC50 (Toxicity), listed under Against HIV-I IIIB, single determinations
[9] = Against HIV-I IIIB, single determinations, read-out: IC50 (Antiviral)
[10] = 100mg kg^-1 ip per day, schedule days 1,2,3,4,5, median, T-test group, C-solvent control, 5 animals per group
[11] = read-out: CC50 (Toxicity), Average, listed under Against HIV-I IIIB, average of the lines above
[12] = Against HIV-I IIIB, average of the lines above, read-out: IC50 (Antiviral), Average
[13] = day 7, MTD by 5 consecutive daily intravenous injections
[14] = control compounds in infected cells

## NC(=O)c1cc([N+](=O)[O-])c(Cl)c([N+](=O)[O-])c1 [C5]
Uninfected cells; [8]
  CC50: 50 µM
HIV-I IIIB; [9]
  IC50: 5 µM

## O=C(O)c1cc([N+](=O)[O-])c(Cl)c([N+](=O)[O-])c1 [C4, 4-chloro-3,5-dinitrobenzoic acid]
[1]; [10]
  T/C%: 271%
Uninfected cells; Table 7, 50% inhibition of cells by 14C protein hydrolysate uptake
  CD50: 70µm
Uninfected cells; [11]
  CC50: 85 µM
Uninfected cells; [8]
  CC50: 100 µM and 70 µM
B16F1-murine melanoma; 50 mg/kg per day ip, days 1,5, 12 days after sc transplant, corn oil
  % Tumour Weight Inhibition: 10%
B16F1-murine melanoma; 75 mg/kg per day ip, days 1,5, 12 days after sc transplant, corn oil
  % Tumour Weight Inhibition: 41%
B16F1-murine melanoma; 100 mg/kg per day ip, days 1,5, 12 days after sc transplant, corn oil
  % Tumour Weight Inhibition: 39%
HIV-I IIIB; [12]
  IC50: 35 µM
HIV-I IIIB; [9]
  IC50: 40 µM and 30 µM
HIV-1RF; Table 7, 50% reduction in HIV core antigen levels, 72 hours post-infection
  IC50: 30 µM

## O=C(O)c1cc([N+](=O)[O-])cc([N+](=O)[O-])c1Cl [C7, 2-chloro-3,5-dinitrobenzoic acid]
Uninfected cells; [11]
  CC50: > 175 µM
HIV-I IIIB; [12]
  IC50: 22 µM
In vitro; listed under Against HIV-I IIIB, single determinations
  CC50 at 72 h: 35 µM

## O=C(O)c1cc([N+](=O)[O-])ccc1Cl [C17, 2-chloro-5-nitrobenzoic acid]
In vivo [2]
  MTD at 5 days: 900 mg/kg/day
[3]
  anti-tumour activity in vitro (in words): could not be supported in vitro
[4]; [13]
  red blood cell count, haemoglobin concentration, macrophage count, white blood cell count (WBC), lymphocyte count and haematocrit (HTC): increases
[4]; day 14
  red blood cell count, haemoglobin concentration, macrophage count, white blood cell count (WBC), lymphocyte count and haematocrit (HTC): returned to normal
[5]; [13]
  red blood cell count, haemoglobin concentration, macrophage count, white blood cell count (WBC), lymphocyte count and haematocrit (HTC): increases
[5]; day 14
  red blood cell count, haemoglobin concentration, macrophage count, white blood cell count (WBC), lymphocyte count and haematocrit (HTC): returned to normal
B16 murine melanoma; 700 mg/kg per day ip, days 1,2,3,4,5,6, 12 days after sc transplant, 6 animals per group
  % Tumour Weight Inhibition: 62%
B16 murine melanoma; refers to Table 6
  anti-tumour activity in vivo (in words): considerable anti-tumour activity
HIV-1 infection; Patient 1, After (day 20), Before (day 1): 0.399, 10mg/kg body weight/day im 5 days weekly
  CD4 ABS: 0.760
HIV-1 infection; Patient 1, After (day 20), Before (day 1): 0.567, 10mg/kg body weight/day im 5 days weekly
  CD8 ABS: 0.840
HIV-1 infection; Patient 1, After (day 20), Before (day 1): 0.70, 10mg/kg body weight/day im 5 days weekly
  CD4/CD8: 0.90
HIV-1 infection; Patient 1, After (day 20), Before (day 1): 2.1, 10mg/kg body weight/day im 5 days weekly
  Lymphocytes: 2.0 x 10^3mm^-3
HIV-1 infection; Patient 1, After (day 20), Before (day 1): 19, 10mg/kg body weight/day im 5 days weekly
  CD4 %: 38%
HIV-1 infection; Patient 2, After (day 14), Before (day 1): 0.360, 10mg/kg body weight/day im 5 days weekly
  CD4 ABS: 0.513
HIV-1 infection; Patient 2, After (day 14), Before (day 1): 0.38, 10mg/kg body weight/day im 5 days weekly
  CD4/CD8: 0.59
HIV-1 infection; Patient 2, After (day 14), Before (day 1): 0.940, 10mg/kg body weight/day im 5 days weekly
  CD8 ABS: 0.874
HIV-1 infection; Patient 2, After (day 14), Before (day 1): 2.0, 10mg/kg body weight/day im 5 days weekly
  Lymphocytes: 1.9 x 10^3mm^-3
HIV-1 infection; Patient 2, After (day 14), Before (day 1): 18, 10mg/kg body weight/day im 5 days weekly
  CD4 %: 27%
HIV-1 infection; Patient 3, After (day 20), Before (day 1): 0.072, 10mg/kg body weight/day im 5 days weekly
  CD4 ABS: 0.187
HIV-1 infection; Patient 3, After (day 20), Before (day 1): 0.270, 10mg/kg body weight/day im 5 days weekly
  CD8 ABS: 0.682
HIV-1 infection; Patient 3, After (day 20), Before (day 1): 0.27, 10mg/kg body weight/day im 5 days weekly
  CD4/CD8: 0.27
HIV-1 infection; Patient 3, After (day 20), Before (day 1): 0.9, 10mg/kg body weight/day im 5 days weekly
  Lymphocytes: 1.1 x 10^3mm^-3
HIV-1 infection; Patient 3, After (day 20), Before (day 1): 8, 10mg/kg body weight/day im 5 days weekly
  CD4 %: 17%
HIV-1 infection; Patient 4, After (day 14), Before (day 1): 0.08, 10mg/kg body weight/day im 5 days weekly
  CD4/CD8: 0.35
HIV-1 infection; Patient 4, After (day 14), Before (day 1): 0.108, 10mg/kg body weight/day im 5 days weekly
  CD4 ABS: 0.440
HIV-1 infection; Patient 4, After (day 14), Before (day 1): 1.350, 10mg/kg body weight/day im 5 days weekly
  CD8 ABS: 1.260
HIV-1 infection; Patient 4, After (day 14), Before (day 1): 1.8, 10mg/kg body weight/day im 5 days weekly
  Lymphocytes: 2.0 x 10^3mm^-3
HIV-1 infection; Patient 4, After (day 14), Before (day 1): 6, 10mg/kg body weight/day im 5 days weekly
  CD4 %: 22%
HIV-1 infection; Patient 5, After (day 21), Before (day 1): 0.56, 10mg/kg body weight/day im 5 days weekly
  CD4/CD8: 0.66
HIV-1 infection; Patient 5, After (day 21), Before (day 1): 0.812, 10mg/kg body weight/day im 5 days weekly
  CD4 ABS: 1.023
HIV-1 infection; Patient 5, After (day 21), Before (day 1): 1.456, 10mg/kg body weight/day im 5 days weekly
  CD8 ABS: 1.550
HIV-1 infection; Patient 5, After (day 21), Before (day 1): 2.8, 10mg/kg body weight/day im 5 days weekly
  Lymphocytes: 3.1 x 10^3mm^-3
HIV-1 infection; Patient 5, After (day 21), Before (day 1): 29, 10mg/kg body weight/day im 5 days weekly
  CD4 %: 33%
HIV-1 infection; Patient 6 (AIDS-related Kaposi's sarcoma), After (day 34), Before (day 1): 0.31, 10mg/kg body weight/day im 5 days weekly
  CD4/CD8: 0.47
HIV-1 infection; Patient 6 (AIDS-related Kaposi's sarcoma), After (day 34), Before (day 1): 0.378, 10mg/kg body weight/day im 5 days weekly
  CD4 ABS: 0.437
HIV-1 infection; Patient 6 (AIDS-related Kaposi's sarcoma), After (day 34), Before (day 1): 1.218, 10mg/kg body weight/day im 5 days weekly
  CD8 ABS: 0.931
HIV-1 infection; Patient 6 (AIDS-related Kaposi's sarcoma), After (day 34), Before (day 1): 2.1, 10mg/kg body weight/day im 5 days weekly
  Lymphocytes: 1.9 x 10^3mm^-3
HIV-1 infection; Patient 6 (AIDS-related Kaposi's sarcoma), After (day 34), Before (day 1): 18, 10mg/kg body weight/day im 5 days weekly
  CD4 %: 23%
HIV-1 infection; Patient 6, AIDS-related Kaposi's sarcoma
  sarcoma lesions (in words): disappeared
HIV-1 infection; all 6 patients, about 2 weeks after the beginning of the therapy, 10mg/kg body weight/day im 5 days weekly
  CD4 counts (in words): showed an increase
HIV-1 infection; including weight gain and a marked decrease in opportunistic infections and diarrhea
  patient general condition (in words): clinical improvements
In vivo [6]
  MTD at 5 days: 950 mg/kg/day
In vitro
  CC50: > 1000 µM

## Nc1ccn([C@H]2CC[C@@H](CO)O2)c(=O)n1 [ddC]
HIV-1RF; [14]
  IC50: 0.2 µM

## O=C(O)c1ccc(Cl)c(Cl)c1 [C11, 3,4-dichlorobenzoic acid]
Uninfected cells
  CC50: > 200 µM

## Cc1cn([C@H]2C[C@H](N=[N+]=[N-])[C@@H](CO)O2)c(=O)[nH]c1=O [AZT]
HIV-1RF
  IC50: 0.01 µM and 0.02 µM

## COC(=O)c1cc([N+](=O)[O-])c(Cl)c([N+](=O)[O-])c1 [C6, 4-chloro-3,5-dinitrobenzoic acid methyl ester]
Uninfected cells
  CC50: 60 µM
B16F1-murine melanoma; mouse, in vivo
  % Tumour Weight Inhibition: 67% and 43%
HIV-I IIIB
  SI (Selectivity Index): 12

## O=C(O)c1ccc([N+](=O)[O-])cc1[N+](=O)[O-] [C28, 2,4-dinitrobenzoic acid]
[1]; [10]
  T/C%: 100%

## NC(=O)c1cc([N+](=O)[O-])c(Cl)c([N+](=O)[O-])c1Cl [C2]
Uninfected cells; [8]
  CC50: 70 µM
HIV-I IIIB; [9]
  IC50: 2 µM

## NC(=O)c1cc([N+](=O)[O-])c(Cl)c([N+](=O)[O-])c1Cl [the amide]
[7]
  anti-tumour activity (in words): without anti-tumour activity
[7]; relative to 2,4-dichloro-3,5-dinitrobenzoic acid
  increase in toxicity: 10 fold

## O=C(O)c1cc(Cl)ccc1Cl [C12, 2,5-dichlorobenzoic acid]
[1]; mouse, in vivo, ip
  T/C%: 171%
Uninfected cells
  CC50: > 200 µM
HIV-I IIIB; Human immunodeficiency virus 1, IIIB, read-out: IC50 (Antiviral)
  IC50: > 200 µM

## O=C(O)c1ccc([N+](=O)[O-])cc1Cl [C10, 2-chloro-4-nitrobenzoic acid]
Uninfected cells
  CC50: > 200 µM

## O=C(O)c1ccc(Cl)c([N+](=O)[O-])c1 [C9, 4-chloro-3-nitrobenzoic acid]
Uninfected cells
  CC50: > 200 µM

## CC(C)(C)NC(=O)[C@@H]1C[C@@H]2CCCC[C@@H]2CN1C[C@@H](O)[C@H](Cc1ccccc1)NC(=O)[C@H](CC(N)=O)NC(=O)c1ccc2ccccc2n1 [compound 8959]
HIV-1RF; [14]
  IC50: 0.001 µM

## COC(=O)c1cc([N+](=O)[O-])cc([N+](=O)[O-])c1Cl [C8, 2-chloro-3,5-dinitrobenzoic acid methyl ester]
Uninfected cells
  CC50: 60 µM
HIV-I IIIB
  SI (Selectivity Index): 5

## O=C(O)c1cc([N+](=O)[O-])cc([N+](=O)[O-])c1 [C29, 3,5-dinitrobenzoic acid]
[1]; [10]
  T/C%: 100%
